Laboratory results taken from patent US9227971B2, “Pyrazolo[1,5-a]pyrimidine compounds as mTOR inhibitors” (Merck Sharp & Dohme Corp., priority 2010, dated 2016).

What was measured:
[1] = tested on: phosphorylated AKT Ser473 (pAKT S473), mTORC2 activity, PC3 cells; experiment: mTOR target engagement assay, immunofluorescent cell-based, pAKT S473 readout (mTORC2 activity); conditions: Homo sapiens, PC-3, PC3 cells, compound treatment ninety minutes at 37° C.
Procedure, shortened: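 After blocking, cells were stained overnight at 4 °C with anti-pAKT S473 antibody, then a fluorescent secondary; inhibition was read as reduced fluorescence intensity.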

[2] = tested on: phosphorylated 4E-BP1 Thr37/46 (p4E-BP1 Thr37/46), mTORC1 activity, PC3 cells; experiment: mTOR target engagement assay, immunofluorescent cell-based, p4E-BP1 Thr37/46 readout (mTORC1 activity); conditions: Homo sapiens, PC-3, PC3 cells, compound treatment ninety minutes at 37° C.; read-out: p4E-BP1 Thr37/46 IC50
Procedure, shortened: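 Seed PC3 cells overnight; treat with compound dilutions for ninety minutes at 37° C; fix with glyoxal and block; stain with anti-p4E-BP1 Thr37/46 overnight at 4° C, then fluorescent secondary; read fluorescence and fit IC50 against DMSO-only controls.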

Row | Structure (SMILES) | IC50 [1] | IC50 [2]
1 | Cn1ccc(-c2ccc(-c3cnn4c(N)c(C5CC5)c([C@@H]5C[C@H]6CC[C@@H](C5)N6C(=O)c5nnc[nH]5)nc34)cn2)n1 [Compound 4.17, ((1R,3s,5S)-3-(7-amino-6-cyclopropyl-3-(6-(1-methyl-1H-pyrazol-3-yl)pyridin-3-yl)pyrazolo[1,5-a]pyrimidin-5-yl)-8-azabicyclo[3.2.1]octan-8-yl)(4H-1,2,4-triazol-3-yl)methanone] | 1 to 100 nM | 1 to 100 nM
2 | Cn1ccc(-c2ccc(-c3cnn4c(N)c(C5CC5)c([C@@H]5C[C@H]6CC[C@@H](C5)N6C(=O)CO)nc34)cn2)n1 [Compound 4.18, 1-((1R,3s,5S)-3-(7-amino-6-cyclopropyl-3-(6-(1-methyl-1H-pyrazol-3-yl)pyridin-3-yl)pyrazolo[1,5-a]pyrimidin-5-yl)-8-azabicyclo[3.2.1]octan-8-yl)-2-hydroxyethanone] | 1 to 100 nM | 1 to 100 nM
3 | Cc1[nH]nc(-c2ccc(-c3cnn4c(N)c(C5CC5)c([C@@H]5C[C@H]6CC[C@@H](C5)N6C(=O)c5nnc[nH]5)nc34)cn2)c1F [Compound 4.19, ((1R,3s,5S)-3-(7-amino-6-cyclopropyl-3-(6-(4-fluoro-5-methyl-1H-pyrazol-3-yl)pyridin-3-yl)pyrazolo[1,5-a]pyrimidin-5-yl)-8-azabicyclo[3.2.1]octan-8-yl)(4H-1,2,4-triazol-3-yl)methanone] | 100 to 1000 nM | 100 to 1000 nM
4 | Cc1[nH]nc(-c2ccc(-c3cnn4c(N)c(C5CC5)c([C@@H]5C[C@H]6CC[C@@H](C5)N6C(=O)CO)nc34)cn2)c1F [Compound 4.20, 1-((1R,3s,5S)-3-(7-amino-6-cyclopropyl-3-(6-(4-fluoro-5-methyl-1H-pyrazol-3-yl)pyridin-3-yl)pyrazolo[1,5-a]pyrimidin-5-yl)-8-azabicyclo[3.2.1]octan-8-yl)-2-hydroxyethanone] | 100 to 1000 nM | 100 to 1000 nM
5 | Nc1c(C2CC2)c([C@@H]2C[C@H]3CC[C@@H](C2)N3C(=O)c2nnc[nH]2)nc2c(-c3ccc(-c4cccc(F)c4)nc3)cnn12 [Compound 4.21, ((1R,3s,5S)-3-(7-amino-6-cyclopropyl-3-(6-(3-fluorophenyl)pyridin-3-yl)pyrazolo[1,5-a]pyrimidin-5-yl)-8-azabicyclo[3.2.1]octan-8-yl)(4H-1,2,4-triazol-3-yl)methanone] | 1 to 100 nM | 1 to 100 nM
6 | Nc1c(C2CC2)c([C@@H]2C[C@H]3CC[C@@H](C2)N3C(=O)CO)nc2c(-c3ccc(-c4cccc(F)c4)nc3)cnn12 [Compound 4.22, 1-((1R,3s,5S)-3-(7-amino-6-cyclopropyl-3-(6-(3-fluorophenyl)pyridin-3-yl)pyrazolo[1,5-a]pyrimidin-5-yl)-8-azabicyclo[3.2.1]octan-8-yl)-2-hydroxyethanone] | 100 to 1000 nM | 100 to 1000 nM
7 | COc1ccc2ncc(-c3cnn4c(N)c(C5CC5)c([C@@H]5C[C@H]6CC[C@@H](C5)N6C(=O)c5nnc[nH]5)nc34)cc2c1 [Compound 4.24, ((1R,3s,5S)-3-(7-amino-6-cyclopropyl-3-(6-methoxyquinolin-3-yl)pyrazolo[1,5-a]pyrimidin-5-yl)-8-azabicyclo[3.2.1]octan-8-yl)(4H-1,2,4-triazol-3-yl)methanone] | 100 to 1000 nM | 100 to 1000 nM
8 | Nc1c(C2CC2)c([C@@H]2C[C@H]3CC[C@@H](C2)N3C(=O)c2nnc[nH]2)nc2c(-c3cnn(-c4ccccc4)c3)cnn12 [Compound 4.26, ((1R,3s,5S)-3-(7-amino-6-cyclopropyl-3-(1-phenyl-1H-pyrazol-4-yl)pyrazolo[1,5-a]pyrimidin-5-yl)-8-azabicyclo[3.2.1]octan-8-yl)(4H-1,2,4-triazol-3-yl)methanone] | 1 to 100 nM | 100 to 1000 nM
9 | COc1ccc(-c2ccc(-c3cnn4c(N)c(C5CC5)c([C@@H]5C[C@H]6CC[C@@H](C5)N6C(=O)c5nnc(N)[nH]5)nc34)cn2)cc1F [Compound 4.27, (5-amino-4H-1,2,4-triazol-3-yl)((1R,3a,5S)-3-(7-amino-6-cyclopropyl-3-(6-(3-fluoro-4-methoxyphenyl)pyridin-3-yl)pyrazolo[1,5-a]pyrimidin-5-yl)-8-azabicyclo[3.2.1]octan-8-yl)methanone] | 1 to 100 nM | 1 to 100 nM
10 | CC(=O)Nc1nnc(C(=O)N2[C@@H]3CC[C@H]2C[C@H](c2nc4c(-c5ccc(-c6ccccc6)nc5)cnn4c(N)c2C2CC2)C3)[nH]1 [Compound 4.28, N-(5-((1R,3s,5S)-3-(7-amino-6-cyclopropyl-3-(6-phenylpyridin-3-yl)pyrazolo[1,5-a]pyrimidin-5-yl)-8-azabicyclo[3.2.1]octane-8-carbonyl)-4H-1,2,4-triazol-3-yl)acetamide] | 100 to 1000 nM | 100 to 1000 nM
11 | Nc1n[nH]cc1C(=O)N1[C@@H]2CC[C@H]1C[C@H](c1nc3c(-c4ccc(-c5ccccc5)nc4)cnn3c(N)c1C1CC1)C2 [Compound 4.30, (3-amino-1H-pyrazol-4-yl)((1R,3s,5S)-3-(7-amino-6-cyclopropyl-3-(6-phenylpyridin-3-yl)pyrazolo[1,5-a]pyrimidin-5-yl)-8-azabicyclo[3.2.1]octan-8-yl)methanone] | 1 to 100 nM | 100 to 1000 nM
12 | COCCNc1nnc(C(=O)N2[C@@H]3CC[C@H]2C[C@H](c2nc4c(-c5ccc(-c6ccccc6)nc5)cnn4c(N)c2C2CC2)C3)[nH]1 [Compound 4.31, ((1R,3s,5S)-3-(7-amino-6-cyclopropyl-3-(6-phenylpyridin-3-yl)pyrazolo[1,5-a]pyrimidin-5-yl)-8-azabicyclo[3.2.1]octan-8-yl)(5-(2-methoxyethylamino)-4H-1,2,4-triazol-3-yl)methanone] | 1000 to 10000 nM | 1000 to 10000 nM
13 | Nc1c(C2CC2)c([C@@H]2C[C@H]3CC[C@@H](C2)N3C(=O)NO)nc2c(-c3ccc(-c4ccccc4)nc3)cnn12 [Compound 4.32, (1R,3s,5S)-3-(7-amino-6-cyclopropyl-3-(6-phenylpyridin-3-yl)pyrazolo[1,5-a]pyrimidin-5-yl)-N-hydroxy-8-azabicyclo[3.2.1]octane-8-carboxamide] | 1 to 100 nM | 1 to 100 nM
14 | N#Cc1c([C@@H]2C[C@H]3CC[C@@H](C2)N3C(=O)CO)nc2c(-c3ccc(-c4ccccc4)nc3)cnn2c1N [Compound 5.1, 7-amino-5-((1R,3s,5S)-8-(2-hydroxyacetyl)-8-azabicyclo[3.2.1]octan-3-yl)-3-(6-phenylpyridin-3-yl)pyrazolo[1,5-a]pyrimidine-6-carbonitrile] | 1 to 100 nM | 100 to 1000 nM
15 | N#Cc1c([C@@H]2C[C@H]3CC[C@@H](C2)N3C(=O)c2nc[nH]n2)nc2c(-c3ccc(-c4ccccc4)nc3)cnn2c1N [Compound 5.2, 5-((1R,3s,5S)-8-(1H-1,2,4-triazole-3-carbonyl)-8-azabicyclo[3.2.1]octan-3-yl)-7-amino-3-(6-phenylpyridin-3-yl)pyrazolo[1,5-a]pyrimidine-6-carbonitrile] | 1 to 100 nM | 1 to 100 nM
16 | N#Cc1c([C@@H]2C[C@H]3CC[C@@H](C2)N3C(=O)c2nnc[nH]2)nc2c(-c3ccc(-c4nccs4)nc3)cnn2c1N [Compound 5.3, 5-((1R,3s,5S)-8-(4H-1,2,4-triazole-3-carbonyl)-8-azabicyclo[3.2.1]octan-3-yl)-7-amino-3-(6-(thiazol-2-yl)pyridin-3-yl)pyrazolo[1,5-a]pyrimidine-6-carbonitrile] | 1 to 100 nM | 1 to 100 nM
17 | COCc1c([C@@H]2C[C@H]3CC[C@@H](C2)N3C(=O)c2nnc[nH]2)nc2c(-c3ccc(-c4ccccc4)nc3)cnn2c1N [Compound 5.4, ((1R,3s,5S)-3-(7-amino-6-(methoxymethyl)-3-(6-phenylpyridin-3-yl)pyrazolo[1,5-a]pyrimidin-5-yl)-8-azabicyclo[3.2.1]octan-8-yl)(4H-1,2,4-triazol-3-yl)methanone] | 1 to 100 nM | 1 to 100 nM
18 | COCc1c([C@@H]2C[C@H]3CC[C@@H](C2)N3C(=O)c2cc(N)n[nH]2)nc2c(-c3ccc(-c4ccccc4)nc3)cnn2c1N [Compound 5.5, (3-amino-1H-pyrazol-5-yl)((1R,3s,5S)-3-(7-amino-6-(methoxymethyl)-3-(6-phenylpyridin-3-yl)pyrazolo[1,5-a]pyrimidin-5-yl)-8-azabicyclo[3.2.1]octan-8-yl)methanone] | 100 to 1000 nM | 1000 to 10000 nM
19 | COCc1c([C@@H]2C[C@H]3CC[C@@H](C2)N3C(=O)c2nnc[nH]2)nc2c(-c3ccc(-c4ccc(OC)cc4)nc3)cnn2c1N [Compound 5.6, ((1R,3s,5S)-3-(7-amino-6-(methoxymethyl)-3-(6-(4-methoxyphenyl)pyridin-3-yl)pyrazolo[1,5-a]pyrimidin-5-yl)-8-azabicyclo[3.2.1]octan-8-yl)(4H-1,2,4-triazol-3-yl)methanone] | 1 to 100 nM | 1 to 100 nM
20 | Nc1c(CO)c([C@@H]2C[C@H]3CC[C@@H](C2)N3C(=O)c2nnc[nH]2)nc2c(-c3ccc(-c4ccccc4)nc3)cnn12 [Compound 5.7, ((1R,3s,5S)-3-(7-amino-6-(hydroxymethyl)-3-(6-phenylpyridin-3-yl)pyrazolo[1,5-a]pyrimidin-5-yl)-8-azabicyclo[3.2.1]octan-8-yl)(4H-1,2,4-triazol-3-yl)methanone] | 1 to 100 nM | 1 to 100 nM
21 | CCc1c([C@@H]2C[C@H]3CC[C@@H](C2)N3C(=O)c2nnc[nH]2)nc2c(-c3ccc(-c4ccccc4)nc3)cnn2c1N [Compound 5.8, ((1R,3s,5S)-3-(7-amino-6-ethyl-3-(6-phenylpyridin-3-yl)pyrazolo[1,5-a]pyrimidin-5-yl)-8-azabicyclo[3.2.1]octan-8-yl)(4H-1,2,4-triazol-3-yl)methanone] | 1 to 100 nM | 1 to 100 nM
